Values joined by “and” are separate entries in the source; they are usually repeats but may differ in a detail not shown here. Equal entries are not always repeated. Inconclusive results and toxic doses are left out.
System: BDF1 mice, P388 leukemia ip, median survival T/C
Test: NCI In Vivo Anticancer Drug Screen. Data for tumor model P388 Leukemia (intraperitoneal) in B6D2F1 (BDF1) mice
Settings: endpoint: median survival time, higher = longer survival
Procedure, shortened: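 Antitumour effect was judged in vivo: survival in drug-treated mice, normalised to that of vehicle-dosed controls, gives the reported T/C.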

[1] = dose: 100.0 mg/kg/injection, schedule: Q01DX009 (ip), vehicle: saline with Tween-80
[2] = dose: 100.0 mg/kg/injection, schedule: Q04DX003 (ip), vehicle: Klucel (hydroxypropylcellulose) (HPC)
[3] = dose: 200.0 mg/kg/injection, schedule: Q01DX009 (ip), vehicle: saline with Tween-80
[4] = dose: 25.0 mg/kg/injection, schedule: Q01DX009 (ip), vehicle: saline with Tween-80
[5] = dose: 50.0 mg/kg/injection, schedule: Q01DX009 (ip), vehicle: saline with Tween-80
[6] = dose: 100.0 mg/kg/injection, schedule: Q04DX003 (ip), vehicle: saline with Tween-80
[7] = dose: 200.0 mg/kg/injection, schedule: Q04DX003 (ip), vehicle: saline with Tween-80
[8] = dose: 400.0 mg/kg/injection, schedule: Q04DX003 (ip), vehicle: saline with Tween-80
[9] = dose: 50.0 mg/kg/injection, schedule: Q04DX003 (ip), vehicle: saline with Tween-80
[10] = dose: 1.56 mg/kg/injection, schedule: Q01DX009 (ip), vehicle: water
[11] = dose: 3.12 mg/kg/injection, schedule: Q01DX009 (ip), vehicle: water
[12] = dose: 6.25 mg/kg/injection, schedule: Q01DX009 (ip), vehicle: water
[13] = dose: 6.25 mg/kg/injection, schedule: Q04DX003 (ip), vehicle: water
[14] = dose: 12.5 mg/kg/injection, schedule: Q01DX009 (ip), vehicle: water
[15] = dose: 3.12 mg/kg/injection, schedule: Q04DX003 (ip), vehicle: water
[16] = dose: 12.5 mg/kg/injection, schedule: Q04DX003 (ip), vehicle: water
[17] = dose: 25.0 mg/kg/injection, schedule: Q01DX009 (ip), vehicle: water
[18] = dose: 25.0 mg/kg/injection, schedule: Q04DX003 (ip), vehicle: water
[19] = dose: 50.0 mg/kg/injection, schedule: Q01DX009 (ip), vehicle: water
[20] = dose: 12.5 mg/kg/injection, schedule: Q01DX009 (ip), vehicle: saline with Tween-80

CC1CC(C)(O)CC(C(O)CC2CC(=O)NC(=O)C2)C1=O (centres undefined)
T/C (dose: 0.4 mg/kg/injection, schedule: Q01DX010 (ip), vehicle: saline): 181 % of control | T/C (dose: 0.5 mg/kg/injection, schedule: Q04DX003 (ip), vehicle: saline): 111 % of control | T/C (dose: 0.8 mg/kg/injection, schedule: Q01DX010 (ip), vehicle: saline): 90 % of control | T/C (dose: 1.2 mg/kg/injection, schedule: Q04DX003 (ip), vehicle: saline): 123 % of control | T/C (dose: 1.3 mg/kg/injection, schedule: Q01DX001 (sc), vehicle: saline): 118 % of control | T/C (dose: 2.0 mg/kg/injection, schedule: Q04DX003 (ip), vehicle: saline): 161 % of control | T/C (dose: 2.16 mg/kg/injection, schedule: Q01DX001 (ip), vehicle: saline): 116 % of control | T/C (dose: 2.16 mg/kg/injection, schedule: Q01DX001 (sc), vehicle: saline): 119 % of control | T/C (dose: 3.33 mg/kg/injection, schedule: Q04DX003 (ip), vehicle: saline): 92 % of control | T/C (dose: 3.6 mg/kg/injection, schedule: Q01DX001 (ip), vehicle: saline): 114 % of control | T/C (dose: 3.6 mg/kg/injection, schedule: Q01DX001 (sc), vehicle: saline): 118 % of control | T/C (dose: 3.6 mg/kg/injection, schedule: Q04DX003 (ip), vehicle: saline): 107 % of control | T/C (dose: 6.0 mg/kg/injection, schedule: Q01DX001 (ip), vehicle: saline): 116 % of control | T/C (dose: 6.0 mg/kg/injection, schedule: Q01DX001 (sc), vehicle: saline): 113 % of control | T/C (dose: 10.0 mg/kg/injection, schedule: Q01DX001 (sc), vehicle: saline): 113 % of control | T/C (dose: 288.0 micrograms/kg/injection, schedule: Q01DX009 (ip), vehicle: saline): 155 % of control and 170 % of control | T/C (dose: 467.0 micrograms/kg/injection, schedule: Q04DX003 (sc), vehicle: saline): 116 % of control | T/C (dose: 480.0 micrograms/kg/injection, schedule: Q01DX009 (ip), vehicle: saline): 177 % of control | T/C (dose: 778.0 micrograms/kg/injection, schedule: Q04DX003 (ip), vehicle: saline): 119 % of control | T/C (dose: 778.0 micrograms/kg/injection, schedule: Q04DX003 (sc), vehicle: saline): 123 % of control | T/C (dose: 800.0 micrograms/kg/injection, schedule: Q01DX009 (ip), vehicle: saline): 109 % of control | T/C (dose: 3600.0 micrograms/kg/injection, schedule: Q04DX003 (ip), vehicle: saline): 92 % of control

COC(=O)c1ccc(OS(=O)(=O)c2cccc([N+](=O)[O-])c2)cc1
T/C [1]: 88 % of control | T/C [2]: 100 % of control | T/C [3]: 100 % of control | T/C (dose: 200.0 mg/kg/injection, schedule: Q04DX003 (ip), vehicle: Klucel (hydroxypropylcellulose) (HPC)): 100 % of control | T/C (dose: 400.0 mg/kg/injection, schedule: Q01DX009 (ip), vehicle: saline with Tween-80): 88 % of control | T/C (dose: 400.0 mg/kg/injection, schedule: Q04DX003 (ip), vehicle: Klucel (hydroxypropylcellulose) (HPC)): 100 % of control

C=C(NC(C)=O)C(=O)O
T/C (dose: 20.0 mg/kg/injection, schedule: Q04DX003 (ip), vehicle: Klucel (hydroxypropylcellulose) (HPC)): 108 % of control | T/C (dose: 25.0 mg/kg/injection, schedule: Q01DX009 (ip), vehicle: Klucel (hydroxypropylcellulose) (HPC)): 104 % of control | T/C (dose: 40.0 mg/kg/injection, schedule: Q04DX003 (ip), vehicle: Klucel (hydroxypropylcellulose) (HPC)): 108 % of control | T/C (dose: 50.0 mg/kg/injection, schedule: Q01DX009 (ip), vehicle: Klucel (hydroxypropylcellulose) (HPC)): 104 % of control | T/C (dose: 80.0 mg/kg/injection, schedule: Q04DX003 (ip), vehicle: Klucel (hydroxypropylcellulose) (HPC)): 86 % of control | T/C (dose: 100.0 mg/kg/injection, schedule: Q01DX009 (ip), vehicle: Klucel (hydroxypropylcellulose) (HPC)): 90 % of control | T/C [2]: 95 % of control

CC(=O)CC(=O)Nc1ccccn1
T/C [4]: 95 % of control | T/C [5]: 92 % of control | T/C [1]: 98 % of control | T/C [3]: 104 % of control

O=[N+]([O-])c1cccc(OCCOc2ccccc2)c1
T/C [6]: 100 % of control | T/C [7]: 115 % of control | T/C [8]: 105 % of control

CCOc1ccc(Nc2cc([N+](=O)[O-])ccc2C(=O)O)cc1
T/C [9]: 100 % of control | T/C [6]: 90 % of control | T/C [7]: 90 % of control

O/C(=C/C(=S)S)c1cccs1
T/C (dose: 0.1 mg/kg/injection, schedule: Q04DX003 (ip), vehicle: water): 88 % of control | T/C (dose: 0.2 mg/kg/injection, schedule: Q04DX003 (ip), vehicle: water): 97 % of control | T/C (dose: 0.39 mg/kg/injection, schedule: Q01DX009 (ip), vehicle: water): 101 % of control | T/C (dose: 0.4 mg/kg/injection, schedule: Q04DX003 (ip), vehicle: water): 95 % of control | T/C (dose: 0.78 mg/kg/injection, schedule: Q01DX009 (ip), vehicle: water): 97 % of control | T/C (dose: 0.8 mg/kg/injection, schedule: Q04DX003 (ip), vehicle: water): 89 % of control | T/C [10]: 92 % of control | T/C [11]: 100 % of control | T/C [12]: 102 % of control | T/C [13]: 111 % of control | T/C [14]: 94 % of control

c1ccc(C2OC2(c2ccccc2)c2ccccc2)cc1 (centres undefined)
T/C [6]: 95 % of control | T/C [7]: 104 % of control | T/C [8]: 95 % of control

O=C(O)C1(C(=O)O)CCC2(CCCCC2)CC1
T/C [15]: 98 % of control | T/C [12]: 110 % of control | T/C [13]: 102 % of control | T/C [14]: 94 % of control | T/C [16]: 102 % of control | T/C [17]: 103 % of control | T/C [18]: 101 % of control and 116 % of control | T/C [19]: 100 % of control | T/C (dose: 50.0 mg/kg/injection, schedule: Q04DX003 (ip), vehicle: water): 101 % of control and 103 % of control | T/C (dose: 100.0 mg/kg/injection, schedule: Q04DX003 (ip), vehicle: water): 90 % of control

CCCCNC(C)(C)CCl
T/C [10]: 95 % of control | T/C [11]: 102 % of control | T/C [15]: 106 % of control | T/C [13]: 88 % of control | T/C [14]: 95 % of control | T/C [16]: 106 % of control | T/C [17]: 111 % of control | T/C [18]: 100 % of control and 106 % of control | T/C [19]: 104 % of control

CC1COC(Nc2cccc3c2CCCC3)=N1 (centres undefined)
T/C (dose: 12.5 mg/kg/injection, schedule: Q04DX003 (ip), vehicle: saline with Tween-80): 100 % of control | T/C (dose: 25.0 mg/kg/injection, schedule: Q04DX003 (ip), vehicle: saline with Tween-80): 109 % of control | T/C [9]: 109 % of control

CC(C)CCCC(C)C1CCC2C3CC=C4CC(S[As](C)C)CCC4(C)C3CCC12C (centres undefined)
T/C [5]: 98 % of control | T/C [1]: 95 % of control | T/C [3]: 98 % of control

CC(C)C(C)/C=C\C(C)C1CCC2C3=CCC4CC(=O)CCC4(C)C3CCC21C (centres undefined)
T/C (dose: 6.25 mg/kg/injection, schedule: Q01DX009 (ip), vehicle: saline with Tween-80): 104 % of control | T/C [20]: 104 % of control | T/C [4]: 108 % of control

COC(=O)C[C@](O)(CCC(C)C)C(=O)O[C@@H]1C(OC)=C[C@]23CCCN2CCc2cc4c(cc2[C@H]13)OCO4
T/C (dose: 0.06 mg/kg/injection, schedule: Q01DX010 (ip), vehicle: saline): 118 % of control | T/C (dose: 0.13 mg/kg/injection, schedule: Q01DX010 (ip), vehicle: saline): 109 % of control | T/C (dose: 0.25 mg/kg/injection, schedule: Q01DX010 (ip), vehicle: saline): 118 % of control | T/C (dose: 1.0 mg/kg/injection, schedule: Q01DX010 (ip), vehicle: saline): 155 % of control | T/C (dose: 2.0 mg/kg/injection, schedule: Q01DX010 (ip), vehicle: saline): 180 % of control

Cc1ccc(-c2cc(C)n(C)[n+]2C)cc1
T/C [20]: 108 % of control | T/C [4]: 110 % of control

Source: PubChem BioAssay AID328 (DTP/NCI, 2004)
